Source: PubChem BioAssay (NCI)
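Step 1: Grow cells in 96-well plates. Step 2: Expose to compound for 48 hours at 5 concentrations. Step 3: Interpolate endpoints linearly; if unreached, use highest concentration. The concentration for full growth arrest is given as TGI.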

Legend:
Assay in all cases: growth of human tumour cells (NCI), 48 h
A549 NSCLC = test system: A549 NSCLC
CAKI-1 renal = test system: CAKI-1 renal
CCRF-CEM leukemia = test system: CCRF-CEM leukemia
EKVX NSCLC = test system: EKVX NSCLC
HCC-2998 colon = test system: HCC-2998 colon
KM12 colon = test system: KM12 colon
OVCAR-8 ovarian = test system: OVCAR-8 ovarian
SF-539 CNS = test system: SF-539 CNS
SK-MEL-2 melanoma = test system: SK-MEL-2 melanoma
TK-10 renal = test system: TK-10 renal

Structure (SMILES) | TGI (A549 NSCLC) | TGI (CAKI-1 renal) | TGI (CCRF-CEM leukemia) | TGI (EKVX NSCLC) | TGI (HCC-2998 colon) | TGI (KM12 colon) | TGI (OVCAR-8 ovarian) | TGI (SF-539 CNS) | TGI (SK-MEL-2 melanoma) | TGI (TK-10 renal)
Cc1cc(S(=O)(=O)O)c(NC(=O)C(=O)C2C=CCS2(=O)=O)cc1Cl (stereo not given) | > 100 µM | > 100 µM | > 100 µM | > 100 µM | > 100 µM | > 100 µM | > 100 µM | > 100 µM | > 100 µM | > 100 µM
Nc1ccccc1N/C=C\C(=O)C(Cl)(Cl)Cl | > 100 µM | 51.3 µM | > 100 µM | 30.5 µM | 31.7 µM | 29.4 µM | > 100 µM | > 100 µM | 53.7 µM | 71.9 µM
C/C(=N\NC(N)=S)C(CN(CC(C)C)CC(C)C)C(=O)Nc1ccc(C)cc1C (stereo not given) | > 100 µM | > 100 µM | > 100 µM | > 100 µM | > 100 µM | > 100 µM | > 100 µM | > 100 µM | > 100 µM | > 100 µM
O=C(OCc1ccccc1)C1(N2CN(C3(C(=O)OCc4ccccc4)CCCC3)CN(C3(C(=O)OCc4ccccc4)CCCC3)C2)CCCC1 | > 10 µM | > 10 µM | > 10 µM | > 10 µM | > 10 µM | > 10 µM | > 10 µM | > 10 µM | > 10 µM | > 10 µM
CCCCCCCCCCCCCCCCCCNc1ccn(C2OC(COP(=O)(O)OCC3OC(n4cc(C)c(=O)[nH]c4=O)CC3N=[N+]=[N-])C(O)C2O)c(=O)n1 (stereo not given) | > 100 µM | 58.6 µM | 48.7 µM | 48.5 µM | 29.9 µM | 35 µM | 48.8 µM | 33.8 µM | 39.8 µM | 69.5 µM
COc1ccc2c(c1)n([O-])c(C#N)c(N1CCN(c3ccc([N+](=O)[O-])cc3)CC1)[n+]2=O | > 100 µM | > 100 µM | > 100 µM | > 100 µM | > 100 µM | > 79.1 µM | > 100 µM | 6.23 µM | > 100 µM | > 100 µM
C(=C\c1ccccc1)/C=N/c1nc2cc3sc(/N=C/C=C/c4ccccc4)nc3cc2s1 | > 100 µM | > 100 µM | > 100 µM | > 100 µM | > 100 µM | > 100 µM | > 100 µM | > 100 µM | > 100 µM | > 100 µM
CN(C)CCNC(=O)c1cccc2nc3c(nc12)-c1ccccc1C3=O | 37.7 µM | 66.4 µM | 17.4 µM | 48.6 µM | 38.1 µM | 33.2 µM | 62.7 µM | 27 µM | 32.4 µM | 56.6 µM
O=C1Cc2c([nH]c3ccc(Br)cc23)-c2ccccc2N1 | > 100 µM | > 100 µM | > 100 µM | > 100 µM | > 100 µM | > 100 µM | > 100 µM | > 27.8 µM | > 100 µM | > 100 µM
O=C1COc2ccc([N+](=O)[O-])cc2C(=O)C1 | > 10 µM | > 10 µM | > 10 µM | > 10 µM | > 10 µM | > 10 µM | > 10 µM | > 10 µM | > 10 µM | > 10 µM
CSc1c(C#N)c(=O)[nH]c2n[nH]c(C)c12 | > 100 µM | > 100 µM | > 100 µM | > 100 µM | > 100 µM | > 100 µM | > 100 µM | > 100 µM | > 100 µM | > 100 µM
Cc1sc(/N=C/c2c[nH]c3ccccc23)c(C#N)c1C | > 100 µM | > 100 µM | 58.3 µM | > 100 µM | 70.5 µM | > 100 µM | > 100 µM | > 100 µM | > 100 µM | 74.9 µM
